Structures are written as SMILES.

This series in a line: gradient 5% acetonitrile 3 min, to 50% in 2 min, to 85% in 15 min, held 3 min, 100 µL/min. The note with it: column: Zorbax Extend-C18 2.1 x 50 mm; eluents: water / acetonitrile, 0.1% formic acid. A digest of the protocol: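 Pure standards were analyzed in mixtures of ~100 molecules using HPLC coupled to a quadrupole time-of-flight mass spectrometer, in both positive and negative ionization mode. Separation used a Zorbax Extend-C18 column (2.1 × 50 mm, 1.8 μm) at 100 μL/min, with water and acetonitrile each containing 0.1% formic acid. Dead and dwell volumes were 40 μL and 900 μL, and data were collected over 3 months. Retention time was read from computationally picked adduct peaks, each inspected manually.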
Compound `Cc1nnc2cc(N3CCN(S(=O)(=O)c4cccc(C(F)(F)F)c4)CC3)cnn12` returned an RP-LC retention time of 730 s.

In turn, `CCN1C(=O)c2cc(S(=O)(=O)Nc3cc(C)ccc3F)ccc2Oc2cccnc21` displayed an RP-LC retention time of 1030 s.

For `O=C(Nc1ccc2c(c1)OCCO2)N1CCC2(CC1)CC(OCc1ccccc1)CCO2` (stereo not given), the RP-LC retention time came to 914 s.

`COc1ccc(C(=O)N2CCC(c3cc(N)on3)CC2)cc1OC`: the RP-LC retention time stood at 615 s.

Compound `COc1ccccc1-c1cnn2c(C)cc(C)nc12` registered an RP-LC retention time of 862 s.

In turn, `O=C(Nc1ccc(S(=O)(=O)N2CC3CC(C2)c2cccc(=O)n2C3)cc1)C1CC1` (stereo not given) gave an RP-LC retention time of 631 s.

`CC(=O)N1CCc2cc(S(=O)(=O)C(C)CC(=O)N3CCN(c4ccccc4F)CC3)ccc21` (stereo not given) had an RP-LC retention time of 826 s.

The compound `C=CCNC(=O)c1cn(-c2ccc(-c3nc(CC)no3)cn2)cn1` showed an RP-LC retention time of 750 s.

Compound `COc1ccccc1-c1nc(-c2ccc(S(=O)(=O)N3CCCCC3)cc2)no1` returned an RP-LC retention time of 1220 s.

Compound `Cc1ccn2cc(-c3ccc(C)c(NS(=O)(=O)c4ccc(Cl)cc4)c3)nc2c1` came in with an RP-LC retention time of 698 s.

`O=C(CN1CCN(Cc2ccc(F)cc2Cl)C1=O)NC1CC1` showed an RP-LC retention time of 692 s.

As to `CCn1c(N)c(C(=O)NC)c(=O)c2ccc(C#C[C@@](C)(O)COC)nc21`, the RP-LC retention time was 698 s.

Regarding `CCc1nc(N2CCC(C(=O)NCc3cccc(C(F)(F)F)c3)CC2)c2c(C)scc2n1`, the RP-LC retention time is 786 s.

Consider `Cc1cc(F)ccc1NC(=O)C1CCN(S(=O)(=O)c2cc(C(=O)N(C)C)cs2)CC1`, for which the RP-LC retention time is 758 s.

Take `O=C(Cn1c(=O)c2cccn2c2ccccc21)Nc1cccc(C(F)(F)F)c1`: the RP-LC retention time was found to be 880 s.

The compound `Cc1ccc(NC(=O)c2ccccc2C(=O)O)cc1Br` displayed an RP-LC retention time of 768 s.

In turn, `CCc1cc(=O)n(CC(=O)Nc2ccc(F)cc2)c(N2CCOCC2)n1` returned an RP-LC retention time of 714 s.

`CCOCCCNC(=O)C1CCN(S(=O)(=O)c2ccc3c(c2)CCCC(=O)N3)CC1` came in with an RP-LC retention time of 656 s.

As to `CC(=O)OC1CCN(C(=O)C(C)(C)C)CC1`, the RP-LC retention time came out at 726 s.

In turn, `Cc1ccc(-c2nc3ncccn3c2Nc2ccccc2C)cc1` had an RP-LC retention time of 802 s.

`CCCc1nc(C2CC(=O)N(c3ccc(OC)cc3)C2)no1` (stereo not given) yielded an RP-LC retention time of 828 s.

Regarding `O=C(Cn1c(-c2cnccn2)nc2ccccc21)N1CCN(C(=O)c2ccco2)CC1`, the RP-LC retention time came to 615 s.

For the compound `O=C(C1CC1)N1CCc2sc(S(=O)(=O)Nc3ccc(Cl)cc3F)cc2C1`, the RP-LC retention time is 887 s.

As to `Cc1ccc(CNC(=O)C2CCCN(c3nc4ccsc4c(=O)n3Cc3ccc(C)cc3)C2)cc1` (stereo not given), the RP-LC retention time was 1060 s.

In turn, `CC(C)c1cc(C(=O)Nc2ccccc2)no1` gave an RP-LC retention time of 969 s.

As for `O=S(=O)(c1ccccc1Cl)N1CCc2nc(-c3ccc(Cl)cc3)ncc2C1`, the RP-LC retention time worked out at 1180 s.

`C=CCn1c(=O)c2ccccc2n(Cc2nc(-c3ccc(C)cc3)no2)c1=O` came in with an RP-LC retention time of 1070 s.

Compound `CCOC(=O)c1[nH]c(C)c(CCC(=O)N2CCCC(C(=O)NC3CCCC3)C2)c1C` (stereo not given) displayed an RP-LC retention time of 746 s.

The compound `Cc1sc2ccn(Cc3ccc(F)cc3)c(=O)c2c1C(=O)NCc1cccnc1` had an RP-LC retention time of 632 s.

The compound `Cc1ccc(=O)n(CCNC(=O)c2ccc3nsnc3c2)n1` returned an RP-LC retention time of 619 s.

Consider `COc1ccc(CNC(=O)C2CN(S(=O)(=O)C3CC3)CC23CCCCC3)cc1` (stereo not given), for which the RP-LC retention time was found to be 891 s.

Consider `CC1CCc2cc(F)ccc2N1C(=O)C12CCC(C1)C(C)(C)C2=O` (stereo not given), for which the RP-LC retention time worked out at 1020 s.

With `COc1cc2oc3cc(C)oc(=O)c3c2cc1OC`, the RP-LC retention time is 841 s.

`Cc1ccc(Cl)cc1NC(=O)N1CCC(CC(=O)NCc2ccc(F)cc2)CC1` gave an RP-LC retention time of 849 s.

In turn, `Cc1cc(Br)ccc1NC(=O)Cn1cnc(C)c(C)c1=O` returned an RP-LC retention time of 673 s.

`CC(C)CCNC(=O)N1CCC(OC2CCN(Cc3ccccc3)CC2)CC1` showed an RP-LC retention time of 641 s.

For the compound `O=C(CN1CC=C(c2cnn(-c3ccccc3)c2)CC1)N1CCC(N2CCCCC2)CC1`, the RP-LC retention time was 573 s.

`CN(C)C(=O)N1CC(c2nc(-c3ccc(F)cc3)no2)C2(CCOCC2)C1` (stereo not given) returned an RP-LC retention time of 790 s.

Take `Cc1cccc(CNC(=O)CCC(=O)N2CCSc3nc(C)cc(C)c32)c1`: the RP-LC retention time is 692 s.

With `CC(C)n1c(=O)oc2cc(-c3noc(-c4cc(F)cc(F)c4)n3)ccc21`, the RP-LC retention time was 1220 s.

For the compound `Cc1ccc(Nc2nc(C)cc(N3CCN(C(=O)Nc4ccc(F)c(Cl)c4)CC3)n2)cc1`, the RP-LC retention time was 811 s.

`COCCN1CC2(CCCC2)N(Cc2cc(C(F)(F)F)ccc2Cl)CC1=O`: the RP-LC retention time turned out to be 1060 s.

As to `Cc1ccc(NC(=O)C2CCCN(c3ncnc4c3oc3ccccc34)C2)cc1` (stereo not given), the RP-LC retention time amounted to 825 s.

Consider `Cc1cc(=O)n(CC(=O)Nc2ccc(N(C)C)cc2)c(N2CCOCC2)n1`, for which the RP-LC retention time is 555 s.

Compound `O=C(Nc1ccc2c(c1)C(=O)Nc1ccccc1O2)c1nc2ccccc2s1` registered an RP-LC retention time of 928 s.

`CCOc1ccccc1NC(=O)C1CCCN(c2nc3ccccc3nc2OC)C1` (stereo not given) showed an RP-LC retention time of 1220 s.

As for `COc1ccc(-n2cc(C(=O)OCc3ccccn3)c3ccccc3c2=O)cc1`, the RP-LC retention time worked out at 854 s.

In turn, `CC(=O)N1CCCc2cc(S(=O)(=O)N3CCC(C(=O)NCC4CCCO4)CC3)ccc21` (stereo not given) yielded an RP-LC retention time of 658 s.

Turning to `Cc1ccc(S(=O)(=O)N2CCC(n3cnc4ccc(C)cc4c3=O)CC2)c(C)c1`, the RP-LC retention time came out at 988 s.

In the case of `CS(=O)(=O)N(Cc1cccnc1)C1CN(C(=O)c2ccc3ccccc3n2)C1`, the RP-LC retention time is 615 s.

With `COC(=O)c1cccc(-c2nc(C3CC(=O)N(c4ccc(F)c(Cl)c4)C3)no2)c1` (stereo not given), the RP-LC retention time was found to be 1050 s.

`CCN1CCCC1CN(CC(=O)N1CCNCC1)S(=O)(=O)c1ccc(CC(C)C)cc1` (stereo not given): the RP-LC retention time came out at 610 s.

As to `CCCN1C(=O)COc2ccc(-c3noc(Cc4ccc(NC(C)=O)cc4)n3)cc21`, the RP-LC retention time was found to be 841 s.

Take `Cc1nc(C2CCOCC2)n(C2CCN(S(=O)(=O)c3ccc(C(C)(C)C)cc3)C2)n1` (stereo not given): the RP-LC retention time was 871 s.

The compound `CCOC(=O)c1ccccc1NC(=O)N(Cc1cc(=O)[nH]c2ccccc12)CC(C)C` came in with an RP-LC retention time of 1090 s.

`Cc1[nH]c(C(=O)N2CCC(CC(=O)NCCN3CCCCCC3)CC2)c(C)c1C` yielded an RP-LC retention time of 626 s.

`O=C(Cc1ccc(F)cc1)NCCCn1cccc1` came in with an RP-LC retention time of 746 s.

Compound `CC(=O)N(CC(=O)N1CCc2sccc2C1COc1ccc(F)cc1)C(C)C` (stereo not given) registered an RP-LC retention time of 805 s.

Turning to `CN1C(=O)COc2ccc(-c3csc(NC(=O)c4cccc(Cl)c4)n3)cc21`, the RP-LC retention time came out at 1020 s.

For the compound `O=C(NC1CCCC1)N1CCC2(CC1)N(c1ccccc1)C(=O)CS2=O` (stereo not given), the RP-LC retention time amounted to 648 s.

Consider `CCc1cc(C(=O)Nc2cc(C)cc(C)c2)nc2ccnn12`, for which the RP-LC retention time turned out to be 1140 s.

The compound `O=C(NC(c1ccccc1)c1nnc(N2CCCCC2)o1)C1CCCC1` (stereo not given) came in with an RP-LC retention time of 836 s.

As for `CN(c1ccccc1)c1nc(=O)n(CC(=O)Nc2ccc3c(c2)OCCO3)c2ccccc12`, the RP-LC retention time came to 785 s.

`CCC(C(=O)NCCN1CCN(CC)CC1)n1c2ccccc2c2cnn(C)c(=O)c21` (stereo not given): the RP-LC retention time is 595 s.

With `Cc1ccc(NC(=O)CSc2nnc3c4cc(-c5ccc(F)cc5)nn4ccn23)c(C)c1`, the RP-LC retention time came out at 931 s.

`O=C(NCCn1c(=O)n(Cc2ccccc2)c2cccnc21)c1ccsc1` showed an RP-LC retention time of 750 s.

Regarding `COc1cccc(N2CCN(Cc3nc(-c4ccc(N5CCCC(C)C5)nc4)no3)CC2)c1` (stereo not given), the RP-LC retention time worked out at 882 s.

Take `Cc1ccc(CNC(=O)c2nnc(-c3ccc(S(=O)(=O)N4CCOCC4)cc3)o2)o1`: the RP-LC retention time is 820 s.

With `O=C(Nc1cccc(Oc2ccccn2)c1)c1c2c(nn1C1CCS(=O)(=O)C1)CCC2` (stereo not given), the RP-LC retention time was 807 s.

`O=C(Cn1cccc1-c1nc(-c2ccc(Cl)cc2)cs1)NCC1CCCO1` (stereo not given) came in with an RP-LC retention time of 1030 s.

Take `O=C(Cn1cnc2c(-c3ccc(F)cc3)csc2c1=O)N1CCCC1`: the RP-LC retention time is 783 s.

`CCCn1cc(CCNC(=O)Nc2ccc(OC)cc2)c2cccnc21` had an RP-LC retention time of 713 s.

Compound `O=C(NCCCN1CCOCC1)C(=O)Nc1ccc(Br)cc1F` had an RP-LC retention time of 625 s.

As for `CC(=O)Nc1ccc(S(=O)(=O)N2CCn3cccc3C2c2ccc(F)c(F)c2)cc1` (stereo not given), the RP-LC retention time turned out to be 857 s.

As to `O=C(NC1CC1)C1CCN(c2nc3ccc(-c4cccc(F)c4)nc3s2)CC1`, the RP-LC retention time came out at 918 s.

`COC(=O)c1ccsc1NC(=O)CCS(=O)(=O)c1ccccc1` had an RP-LC retention time of 788 s.

Consider `COCCCNC(=O)C1c2ccccc2C(=O)N1Cc1ccccc1C` (stereo not given), for which the RP-LC retention time is 753 s.

The compound `O=C(Nc1ccc(F)cc1F)N1CCC(N(C(=O)C2CC2)C2CCOCC2)CC1` showed an RP-LC retention time of 719 s.

For `CCCCn1nc2c(S(=O)(=O)N3CCN(c4ccc(F)cc4)CC3)cccn2c1=O`, the RP-LC retention time is 951 s.

The compound `CNC(=O)C1CN(C(=O)c2cccc(Cl)c2)CC12CCCC2` (stereo not given) had an RP-LC retention time of 726 s.

The values above are taken from the METLIN SMRT retention time set (Domingo-Almenara et al. 2019).
